Assay results reported in patent US10047051B2, “Substituted pyridines and method of use” (AbbVie S.á{acute over (.)}r.l., priority 2015, dated 2018).

Legend:
Format in all cases: cell-based
CFTR G551D mutant = target: T1, CFTR G551D mutant (Homo sapiens, UniProt P13569, G551D); assay: YFP-halide influx assay for the CFTR-G551D mutation (HEK293 cells); settings: forskolin 10.67 μM
T1 construct: expressed in transfected cells; host or cells: HEK293 cells, reverse transfection with plasmids
Summary of the method: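 HEK293 cells reverse-transfected with CFTR G551D and halide-sensitive YFP (H148Q/I152L/F47L), expressed 24 h at 37 °C. YFP fluorescence quenching recorded for 7 s after I⁻ injection. Response = 1−F/F0; EC50 derived from 1−F/F0 vs compound concentration.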

CFTR-G178R = target: T2, CFTR-G178R (Homo sapiens, UniProt P13569, G178R); assay: YFP-halide influx assay for the CFTR-G178R
T2 construct: expressed in transfected cells
T2 sequence (P13569 whole entry G178R): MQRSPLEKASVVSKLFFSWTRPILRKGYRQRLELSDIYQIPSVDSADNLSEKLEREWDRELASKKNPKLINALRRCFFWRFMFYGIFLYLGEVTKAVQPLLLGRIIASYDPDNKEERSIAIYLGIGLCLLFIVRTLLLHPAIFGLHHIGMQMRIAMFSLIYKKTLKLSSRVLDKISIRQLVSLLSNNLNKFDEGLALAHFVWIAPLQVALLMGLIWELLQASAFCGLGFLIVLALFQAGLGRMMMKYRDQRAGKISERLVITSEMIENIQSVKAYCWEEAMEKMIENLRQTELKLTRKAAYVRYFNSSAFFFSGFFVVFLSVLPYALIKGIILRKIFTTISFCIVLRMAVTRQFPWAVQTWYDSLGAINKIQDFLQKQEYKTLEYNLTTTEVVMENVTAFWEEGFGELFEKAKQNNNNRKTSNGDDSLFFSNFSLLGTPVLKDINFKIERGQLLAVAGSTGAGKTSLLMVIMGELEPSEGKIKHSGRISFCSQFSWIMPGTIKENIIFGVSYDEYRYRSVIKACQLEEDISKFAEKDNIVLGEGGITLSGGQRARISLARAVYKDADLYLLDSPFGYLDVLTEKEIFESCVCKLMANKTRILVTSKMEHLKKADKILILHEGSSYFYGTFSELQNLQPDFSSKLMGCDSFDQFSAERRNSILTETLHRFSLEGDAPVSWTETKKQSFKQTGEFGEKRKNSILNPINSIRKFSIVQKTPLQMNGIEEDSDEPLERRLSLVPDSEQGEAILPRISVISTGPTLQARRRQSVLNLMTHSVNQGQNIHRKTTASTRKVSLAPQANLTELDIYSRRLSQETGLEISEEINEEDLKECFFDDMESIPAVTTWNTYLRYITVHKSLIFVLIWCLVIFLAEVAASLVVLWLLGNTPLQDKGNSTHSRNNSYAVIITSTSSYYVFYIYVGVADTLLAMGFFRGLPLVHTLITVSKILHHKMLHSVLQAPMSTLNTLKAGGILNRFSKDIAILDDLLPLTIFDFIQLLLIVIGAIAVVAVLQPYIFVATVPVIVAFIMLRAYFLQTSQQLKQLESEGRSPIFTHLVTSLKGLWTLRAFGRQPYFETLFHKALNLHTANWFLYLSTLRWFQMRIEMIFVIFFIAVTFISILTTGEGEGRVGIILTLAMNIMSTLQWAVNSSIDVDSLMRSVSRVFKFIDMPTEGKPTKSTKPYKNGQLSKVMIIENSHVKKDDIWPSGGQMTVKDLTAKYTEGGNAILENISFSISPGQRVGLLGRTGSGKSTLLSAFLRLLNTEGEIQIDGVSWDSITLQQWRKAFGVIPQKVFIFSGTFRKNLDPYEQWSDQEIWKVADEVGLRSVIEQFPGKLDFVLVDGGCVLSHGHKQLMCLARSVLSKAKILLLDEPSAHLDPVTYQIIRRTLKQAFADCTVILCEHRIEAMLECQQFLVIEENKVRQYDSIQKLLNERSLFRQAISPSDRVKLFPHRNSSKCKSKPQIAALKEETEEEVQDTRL
Summary of the method: (§1)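 HEK293 cells reverse-transfected with a CFTR mutant and YFP H148Q/I152L/F47L halide sensor, expressed 24 h at 37° C. Fluorescence quenching followed for 7 s after I⁻ injection; activity expressed as 1−F/F0, with EC50 fitted from 1−F/F0 versus compound concentration.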

CFTR-S549N = target: T3, CFTR-S549N (Homo sapiens, UniProt P13569, S549N); assay: YFP-halide influx assay for the CFTR-S549N; design: % Activation: concentration or dose not given beside the values
T3 construct: expressed in transfected cells
T3 sequence (P13569 whole entry S549N): as the sequence (P13569 whole entry G178R) above, with R178G, S549N counted along it
Summary of the method: as §1

CFTR ΔF508 = target: T4, CFTR ΔF508 (Homo sapiens, UniProt P13569, DEL508-508); assay: TECC assay, primary bronchial epithelial cells, CFTR ΔF508; settings: primary bronchial epithelial cells of CF patients homozygous for CFTR ΔF508, treated with 3 μM VX809, increase in Isc after forskolin
T4 construct: host or cells: primary human bronchial epithelial cells from CF patients homozygous for ΔF508, pre-treated with VX809
T4 sequence (P13569 with tags, fused parts or gaps DEL508-508): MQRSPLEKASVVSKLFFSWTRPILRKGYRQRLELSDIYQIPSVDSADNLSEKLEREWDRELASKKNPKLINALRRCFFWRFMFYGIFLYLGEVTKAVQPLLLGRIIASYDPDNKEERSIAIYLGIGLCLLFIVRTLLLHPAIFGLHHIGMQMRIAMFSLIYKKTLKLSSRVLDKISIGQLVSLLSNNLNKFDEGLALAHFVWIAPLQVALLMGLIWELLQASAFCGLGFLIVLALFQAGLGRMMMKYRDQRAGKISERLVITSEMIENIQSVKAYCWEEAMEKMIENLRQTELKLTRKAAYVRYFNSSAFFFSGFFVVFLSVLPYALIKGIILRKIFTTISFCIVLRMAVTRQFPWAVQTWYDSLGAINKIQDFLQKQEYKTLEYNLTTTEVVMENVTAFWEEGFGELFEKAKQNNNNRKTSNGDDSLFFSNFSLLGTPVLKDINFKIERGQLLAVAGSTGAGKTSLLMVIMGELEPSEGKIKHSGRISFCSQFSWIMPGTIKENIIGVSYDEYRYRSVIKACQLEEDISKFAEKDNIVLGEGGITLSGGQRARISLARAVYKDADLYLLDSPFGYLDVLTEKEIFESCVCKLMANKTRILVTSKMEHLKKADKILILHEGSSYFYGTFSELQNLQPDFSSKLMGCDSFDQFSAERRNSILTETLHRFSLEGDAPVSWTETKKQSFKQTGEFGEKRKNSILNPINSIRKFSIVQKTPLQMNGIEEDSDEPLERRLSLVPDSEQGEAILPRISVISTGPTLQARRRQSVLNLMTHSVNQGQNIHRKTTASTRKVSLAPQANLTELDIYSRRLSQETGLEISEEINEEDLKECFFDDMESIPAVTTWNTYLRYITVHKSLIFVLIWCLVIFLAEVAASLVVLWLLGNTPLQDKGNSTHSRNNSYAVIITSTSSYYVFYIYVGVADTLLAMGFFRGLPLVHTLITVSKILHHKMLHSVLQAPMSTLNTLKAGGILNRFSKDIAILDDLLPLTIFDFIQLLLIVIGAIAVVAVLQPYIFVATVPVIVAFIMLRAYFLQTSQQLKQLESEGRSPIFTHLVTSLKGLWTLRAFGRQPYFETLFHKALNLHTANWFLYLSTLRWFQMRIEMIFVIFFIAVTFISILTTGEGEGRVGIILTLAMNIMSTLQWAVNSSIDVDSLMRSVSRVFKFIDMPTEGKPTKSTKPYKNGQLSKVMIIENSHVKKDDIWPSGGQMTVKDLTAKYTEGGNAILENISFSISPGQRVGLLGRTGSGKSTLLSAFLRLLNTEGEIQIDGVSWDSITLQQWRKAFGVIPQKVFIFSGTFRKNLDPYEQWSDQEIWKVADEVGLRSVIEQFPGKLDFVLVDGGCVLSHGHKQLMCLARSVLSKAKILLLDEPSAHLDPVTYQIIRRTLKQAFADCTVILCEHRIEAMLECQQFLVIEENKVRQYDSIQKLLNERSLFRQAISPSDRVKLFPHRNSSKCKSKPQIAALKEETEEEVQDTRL
Procedure: The TECC (Tranepithelial Clamp Circuit, EP-design) assay measures the functionality of the cystic fibrosis Transmembrane Conductance regulator (CFTR) by measuring the short circuit current (Isc) generated over the basolateral and apical membrane of lung epithelial cells. In TECC the transepithelial potential PD and transepithelial resistance (Rt) are measured in an open circuit and transformed to Isc using Ohm's law. 24 Wells can be measured simultaneously allowing a higher throughput compared to Ussing chambers.
For this purpose, bronchial epithelial cells isolated from CF patients homozygous for the CFTR ΔF508 mutation (hAEC-CF, Epithelix) are plated on type IV collagen-coated Transwell® supports (Costar). Human airway epithelia are generated by provision of an air-liquid interface for 21 days to form well-differentiated polarized cultures that resemble in vivo pseudo-stratified ciliated epithelium (Fulcher, M. L., Gabriel, S., Burns, K. A., Yankaskas, J. R., Randell, S. H., 2005. Well-differentiated human airway epithelial cell cultures. Methods Mol. Med. 107, 183-206). In the case of the homozygous ΔF508 CFTR samples, the differentiated cells are treated with 3 μM VX809 (2626 South Loop West, Suite 225, Houston, Tex. 77054 USA, Cat n# S1565) to allow sufficient expression of properly folded CFTR protein on the membrane (48 hours basolateral treatment and 24 hours apical treatment), prior to electrophysiological recordings. For heterozygous G551D/ΔF508, differentiated cells are used as such for the recordings.
Information on the compounds can be retrieved on the homozygous ΔF508 CFTR samples looking at increased CFTR activity when compounds are added in an acute mode or in a chronic mode. On G551D/ΔF508 CFTR heterozygous samples compounds are added in an acute mode to the differentiated cells.
For the acute mode, for electrophysiological recording, the human airway epithelia are mounted in the TECC heating plate for electrophysiological measurement and kept at 37° C. The epithelia are bathed in a NaCl-Ringer solution (120 mM NaCl, 25 mM NaHCO3, 1.2 mM CaCl2, 1.2 mM MgCl2, 0.8 mM KH2PO4, 0.8 mM K2HPO4, pH 7.4, 5 mM glucose) on both the basolateral and apical sides. Apical amiloride is used to inhibit the endogenous ENaC currents while forkolin is applied on both apical and basolateral side to stimulate CFTR. After forskolin triggering, compounds are added on both sides to test their potential for increasing CFTR gating. Measurements are done during a 20 minute timeframe with recordings every 2 minutes. The increase in Isc is used as a measure for the increased CFTR activity, EC50 values can be generated by measuring impact of different concentrations of compound on Isc on primary cells, for this purpose each transwell is treated with a different compound concentration. Inh-172, an inhibitor specific for CFTR, is used to test the specificity of the tested compounds.
For the chronic mode, the differentiated cells are treated with 3 μM VX809 (2626 South Loop West, Suite 225, Houston, Tex. 77054 USA, Cat n# S1565) and potentiator compounds at different concentrations (48 hours basolateral treatment and 24 hours apical treatment), prior to electrophysiological recordings. For electrophysiological recording, the human airway epithelia are mounted in the TECC heating plate for electrophysiological measurement and kept at 37° C. The epithelia are bathed in a NaCl-Ringer solution (120 mM NaCl, 25 mM NaHCO3, 1.2 mM CaCl2, 1.2 mM MgCl2, 0.8 mM KH2PO4, 0.8 mM K2HPO4, pH 7.4, 5 mM glucose) on both the basolateral and apical sides. Apical amiloride is used to inhibit the endogenous ENaC currents while forkolin is applied on both apical and basolateral side to stimulate CFTR. Measurements are done during a 20 minute timeframe with recordings every 2 minutes. […]

T1 sequence (P13569 whole entry G551D): as the sequence (P13569 whole entry G178R) above, with R178G, G551D counted along it

| SMILES | % Activation (CFTR G551D mutant) [%] | EC50 (CFTR G551D mutant) [nM] | % Activation (CFTR-G178R) [%] | EC50 (CFTR-G178R) [nM] | % Activation (CFTR-S549N) [%] | EC50 (CFTR-S549N) [nM] | EC50 (CFTR ΔF508) [nM] |
| --- | --- | --- | --- | --- | --- | --- | --- |
| Nc1cc(S(=O)(=O)c2ccc(OC(F)(F)F)cc2)cnc1C(=O)NC[C@H](O)C(F)(F)F [Compound 26, 3-amino-N-[(2S)-3,3,3-trifluoro-2-hydroxypropyl]-5-{[4-(trifluoromethoxy)phenyl]sulfonyl}pyridine-2-carboxamide] | 80.8 | 315 | – | – | – | – | 24 |
| Nc1cc(S(=O)(=O)c2ccc(OC(F)(F)F)cc2)cnc1C(=O)NCC(O)COCC1CC1 (centres unmarked) [Compound 31, 3-amino-N-[3-(cyclopropylmethoxy)-2-hydroxypropyl]-5-{[4-(trifluoromethoxy)phenyl]sulfonyl}pyridine-2-carboxamide] | 71.7 | 425 | 84.3 | 348 | 91.4 | 567 | 48.4 |
| Nc1cc(S(=O)(=O)c2ccc(OC(F)(F)F)cc2)cnc1C(=O)NC[C@@H](O)C(F)(F)F [Compound 37, 3-amino-N-[(2R)-3,3,3-trifluoro-2-hydroxypropyl]-5-{[4-(trifluoromethoxy)phenyl]sulfonyl}pyridine-2-carboxamide] | 83.7 | 271 | – | – | – | – | 13.2 |
| Nc1cc(S(=O)(=O)c2ccc(OC(F)(F)F)cc2)cnc1C(=O)N1CC(F)(F)C1 [Compound 40, (3-amino-5-{[4-(trifluoromethoxy)phenyl]sulfonyl}pyridin-2-yl)(3,3-difluoroazetidin-1-yl)methanone] | 70.2 | 656 | 81.76 | 392 | 84.51 | 1200 | 62.2 |
| COC[C@H](O)CNC(=O)c1ncc(S(=O)(=O)c2ccc(C(F)(F)F)cc2)cc1N [Compound 70, 3-amino-N-[(2R)-2-hydroxy-3-methoxypropyl]-5-{[4-(trifluoromethyl)phenyl]sulfonyl}pyridine-2-carboxamide] | 75.3 | 864 | 96.0 | 425 | 104.7 | 526 | 38.8 |
| C[C@H](O)CNC(=O)c1ncc(S(=O)(=O)c2ccc(C(F)(F)F)cc2)cc1N [Compound 100, 3-amino-N-[(2S)-2-hydroxypropyl]-5-{[4-(trifluoromethyl)phenyl]sulfonyl}pyridine-2-carboxamide] | 59.1 | 1140 | 78.7 | 546 | 103.0 | 648 | – |

Next, values leading:

| % Activation (CFTR G551D mutant) [%] | EC50 (CFTR G551D mutant) [nM] | % Activation (CFTR-G178R) [%] | EC50 (CFTR-G178R) [nM] | % Activation (CFTR-S549N) [%] | EC50 (CFTR-S549N) [nM] | EC50 (CFTR ΔF508) [nM] | SMILES |
| --- | --- | --- | --- | --- | --- | --- | --- |
| 47.1 | 700 | 82.7 | 302 | 72.7 | 580 | 95.9 | CC(C)(O)CNC(=O)c1ncc(S(=O)(=O)c2ccc(OC(F)(F)F)cc2)cc1N [Compound 1, 3-amino-N-(2-hydroxy-2-methylpropyl)-5-{[4-(trifluoromethoxy)phenyl]sulfonyl}pyridine-2-carboxamide] |
| 62.5 | 739 | 71.8 | 494 | 70.3 | 331 | 47.1 | CC(O)(CNC(=O)c1ncc(S(=O)(=O)c2ccc(OC(F)(F)F)cc2)cc1N)C(F)(F)F (centres unmarked) [Compound 2, 3-amino-N-(3,3,3-trifluoro-2-hydroxy-2-methylpropyl)-5-{[4-(trifluoromethoxy)phenyl]sulfonyl}pyridine-2-carboxamide] |
| 82.5 | 350 | 93.1 | 80.7 | 87.1 | 390 | 63.2 | Nc1cc(S(=O)(=O)c2ccc(OC(F)(F)F)cc2)cnc1C(=O)NCC(O)C(F)(F)F (centres unmarked) [Compound 6, 3-amino-N-(3,3,3-trifluoro-2-hydroxypropyl)-5-{[4-(trifluoromethoxy)phenyl]sulfonyl}pyridine-2-carboxamide] |
| 71.6 | 1330 | 70.7 | 741 | 68.9 | 1100 | – | Nc1cc(S(=O)(=O)c2ccc(OC(F)(F)F)cc2)cnc1C(=O)NCCO [Compound 14, 3-amino-N-(2-hydroxyethyl)-5-{[4-(trifluoromethoxy)phenyl]sulfonyl}pyridine-2-carboxamide] |
| 85.1 | 1200 | 86.1 | 284 | 86.4 | 748 | 35.5 | C[C@H](O)CNC(=O)c1ncc(S(=O)(=O)c2ccc(OC(F)(F)F)cc2)cc1N [Compound 21, 3-amino-N-[(2S)-2-hydroxypropyl]-5-{[4-(trifluoromethoxy)phenyl]sulfonyl}pyridine-2-carboxamide] |
| 67.2 | 976 | 76.8 | 211 | 82.5 | 292 | 38.6 | Nc1cc(S(=O)(=O)c2ccc(F)cc2)cnc1C(=O)NC[C@H](O)C(F)(F)F [Compound 25, 3-amino-5-[(4-fluorophenyl)sulfonyl]-N-[(2S)-3,3,3-trifluoro-2-hydroxypropyl]pyridine-2-carboxamide] |
| 65.8 | 1940 | 78.0 | 522 | 91.7 | 711 | 72.9 | Nc1cc(S(=O)(=O)c2ccc(OC(F)(F)F)cc2)cnc1C(=O)N1CC(O)C1 [Compound 32, (3-amino-5-{[4-(trifluoromethoxy)phenyl]sulfonyl}pyridin-2-yl)(3-hydroxyazetidin-1-yl)methanone] |
| 58.4 | 667 | 79.3 | 230 | 92.9 | 294 | 63 | Nc1cc(S(=O)(=O)c2ccc(F)cc2)cnc1C(=O)NC[C@@H](O)C(F)(F)F [Compound 36, 3-amino-5-[(4-fluorophenyl)sulfonyl]-N-[(2R)-3,3,3-trifluoro-2-hydroxypropyl]pyridine-2-carboxamide] |
| 108.0 | 239 | 104.8 | 12.6 | 107 | 11.1 | 9.49 | Nc1cc(S(=O)(=O)c2ccccc2OC(F)(F)F)cnc1C(=O)NC[C@@H](O)C(F)(F)F [Compound 81, 3-amino-N-[(2R)-3,3,3-trifluoro-2-hydroxypropyl]-5-{[2-(trifluoromethoxy)phenyl]sulfonyl}pyridine-2-carboxamide] |
